Data from patent US11395847B2, “Acylated GLP-1/GLP-2 dual agonists” (Zealand Pharma A/S, priority 2016, dated 2022).
*1 amine or outer side, *2 acyl side, *3 side chain or, on linkers, in order; H or OH if unused. Where a SMILES comes first, the peptide text is derived from it. Side-chain parts run from the residue outwards. [ ]: non-standard residue; d: D form. The star is where a group is joined. C20 diacid = O=C(O)CCCCCCCCCCCCCCCCCCC(=O)*; γGlu = O=C(O)[C@H](CCC(=O)[*:2])N[*:1]; AEEA = NCCOCCOCC(=O)O; Aib = CC(C)(N)C(=O)O

Experiment: Chemical stability (RP-HPLC normalized purity after incubation at 40° C.)
Assay type: physicochemical
Settings: pH 7, 40° C., 14-day incubation, 0.2 mg/ml, normalized purity (area-%)
Procedure: Samples of each test peptide were dissolved in MILLIQ™ water, and the pH of the solution was adjusted to pH 6, 7, 7.5 or 9 using either HCl or NaOH. The final peptide concentration was 0.2 mg/ml. Samples were placed in glass vials and incubated at 40° C. The samples were analyzed by RP-HPLC on a C18 column with gradient elution using an acetonitrile/TFA/water eluent system. The area-percentage (area-%) of the main peak after incubation time T=t (relative to time T=0) was determined by UV spectroscopy at 220 nm.
The purity was first determined as follows: Purity(area-%)=(area of main peak/total area of all peaks)×100.
The purity was then normalized between time points by setting purity at time 0 (T=0) to 100 for each pH value for a given peptide, as follows: Normalized area-% at time t(T=t)=[area-%(T=t)/area-%(T=0)]×100.
The chemical stability assessment results after 14-day incubation (in the form of normalized purity values) are summarized in Table 4.

Compound	pH 7 normalized stability
CCCCCCCCCCCCCCCC(=O)NCCC(=O)NCCCC[C@H](NC(=O)[C@H](CC(=O)O)NC(=O)[C@H](CC(C)C)NC(=O)[C@@H](NC(=O)[C@@H](NC(=O)[C@H](C)NC(=O)[C@H](CC(C)C)NC(=O)[C@H](CCC(=O)O)NC(=O)[C@H](CO)NC(=O)[C@@H](NC(=O)[C@H](Cc1ccccc1)NC(=O)[C@H](CO)NC(=O)CNC(=O)[C@H](CCC(=O)O)NC(=O)C(C)(C)NC(=O)[C@@H](N)Cc1c[nH]cn1)[C@@H](C)O)[C@@H](C)O)[C@@H](C)CC)C(=O)N[C@@H](CCC(N)=O)C(=O)N[C@@H](C)C(=O)N[C@@H](C)C(=O)N[C@@H](CCCNC(=N)N)C(=O)N[C@@H](CC(=O)O)C(=O)N[C@@H](Cc1ccccc1)C(=O)N[C@H](C(=O)N[C@@H](C)C(=O)N[C@@H](Cc1c[nH]c2ccccc12)C(=O)N[C@@H](CC(C)C)C(=O)N[C@@H](CCC(N)=O)C(=O)N[C@@H](CCC(N)=O)C(=O)N[C@@H](Cc1c[nH]cn1)C(=O)N[C@@H](CCCCN)C(=O)N[C@H](C(=O)N[C@H](C(=O)N[C@@H](CC(=O)O)C(=O)O)[C@@H](C)O)[C@@H](C)CC)[C@@H](C)CC [Compound 32] (HELM PEPTIDE1{H.[Aib].E.G.S.F.T.S.E.L.A.T.I.L.D.K.Q.A.A.R.D.F.I.A.W.L.Q.Q.H.K.I.T.D}|PEPTIDE2{[CCCCCCCCCCCCCCCC(=O)[*:2]].[bAla]}$PEPTIDE1,PEPTIDE2,16:R3-2:R2$$$V2.0)	A (>90% normalised stability)
CC[C@H](C)[C@H](NC(=O)[C@H](Cc1ccccc1)NC(=O)[C@H](CC(=O)O)NC(=O)[C@H](CCCNC(=N)N)NC(=O)[C@H](C)NC(=O)[C@H](C)NC(=O)[C@H](CCC(N)=O)NC(=O)[C@H](CCCCNC(=O)COCCOCCNC(=O)CC[C@H](NC(=O)CCCCCCCCCCCCCCCCC(=O)O)C(=O)O)NC(=O)[C@H](CC(=O)O)NC(=O)[C@H](CC(C)C)NC(=O)[C@@H](NC(=O)[C@@H](NC(=O)[C@H](C)NC(=O)[C@H](CC(C)C)NC(=O)[C@H](CCC(=O)O)NC(=O)[C@H](CO)NC(=O)[C@@H](NC(=O)[C@H](Cc1ccccc1)NC(=O)[C@H](CO)NC(=O)CNC(=O)[C@H](CCC(=O)O)NC(=O)C(C)(C)NC(=O)[C@@H](N)Cc1c[nH]cn1)[C@@H](C)O)[C@@H](C)O)[C@@H](C)CC)C(=O)N[C@@H](C)C(=O)N[C@@H](Cc1c[nH]c2ccccc12)C(=O)N[C@@H](CC(C)C)C(=O)N[C@@H](Cc1ccc(O)cc1)C(=O)N[C@@H](CCC(N)=O)C(=O)N[C@@H](Cc1c[nH]cn1)C(=O)N[C@@H](CCCCN)C(=O)N[C@H](C(=O)N[C@H](C(=O)N[C@@H](CC(=O)O)C(=O)O)[C@@H](C)O)[C@@H](C)CC [Compound 33] (HELM PEPTIDE1{H.[Aib].E.G.S.F.T.S.E.L.A.T.I.L.D.K.Q.A.A.R.D.F.I.A.W.L.Y.Q.H.K.I.T.D}|PEPTIDE2{[O=C(O)CCCCCCCCCCCCCCCCC(=O)[*:2]].[gGlu].[O=C(COCCOCCN[*:1])[*:2]]}$PEPTIDE1,PEPTIDE2,16:R3-3:R2$$$V2.0)	A (>90% normalised stability)
CC[C@H](C)[C@H](NC(=O)[C@H](Cc1ccccc1)NC(=O)[C@H](CC(=O)O)NC(=O)[C@H](CCCNC(=N)N)NC(=O)[C@H](C)NC(=O)[C@H](C)NC(=O)[C@H](CCC(N)=O)NC(=O)[C@H](CCCCNC(=O)COCCOCCNC(=O)COCCOCCNC(=O)CC[C@H](NC(=O)CCCCCCCCCCCCCCCCCCC(=O)O)C(=O)O)NC(=O)[C@H](CC(=O)O)NC(=O)[C@H](CC(C)C)NC(=O)[C@@H](NC(=O)[C@@H](NC(=O)[C@H](C)NC(=O)[C@H](CC(C)C)NC(=O)[C@H](CCC(=O)O)NC(=O)[C@H](CO)NC(=O)[C@@H](NC(=O)[C@H](Cc1ccccc1)NC(=O)[C@H](CO)NC(=O)CNC(=O)[C@H](CCC(=O)O)NC(=O)C(C)(C)NC(=O)[C@@H](N)Cc1c[nH]cn1)[C@@H](C)O)[C@@H](C)O)[C@@H](C)CC)C(=O)N[C@@H](C)C(=O)N[C@@H](Cc1c[nH]c2ccccc12)C(=O)N[C@@H](CC(C)C)C(=O)N[C@@H](CCCCN)C(=O)N[C@@H](CCC(N)=O)C(=O)N[C@@H](Cc1c[nH]cn1)C(=O)N[C@@H](CCCCN)C(=O)N[C@H](C(=O)N[C@H](C(=O)N[C@@H](CC(=O)O)C(=O)O)[C@@H](C)O)[C@@H](C)CC [Compound 34] (H-H[Aib]EGSFTSELATILDK([AEEA-AEEA-γGlu-C20 diacid])QAARDFIAWLKQHKITD-OH)	A (>90% normalised stability)
CC[C@H](C)[C@H](NC(=O)[C@H](Cc1ccccc1)NC(=O)[C@H](CC(=O)O)NC(=O)[C@H](CCCNC(=N)N)NC(=O)[C@H](C)NC(=O)[C@H](C)NC(=O)[C@H](CCC(N)=O)NC(=O)[C@H](CCC(=O)O)NC(=O)[C@H](CC(=O)O)NC(=O)[C@H](CC(C)C)NC(=O)[C@@H](NC(=O)[C@@H](NC(=O)[C@H](C)NC(=O)[C@H](CCCCNC(=O)COCCOCCNC(=O)[C@H](CCCCN)NC(=O)[C@H](CCC(=O)O)NC(=O)[C@H](CCCCN)NC(=O)CC[C@H](NC(=O)CCCCCCCCCCCCCCCCCCC(=O)O)C(=O)O)NC(=O)[C@H](CCC(=O)O)NC(=O)[C@H](CO)NC(=O)[C@@H](NC(=O)[C@H](Cc1ccccc1)NC(=O)[C@H](CO)NC(=O)CNC(=O)[C@H](CCC(=O)O)NC(=O)C(C)(C)NC(=O)[C@@H](N)Cc1c[nH]cn1)[C@@H](C)O)[C@@H](C)O)[C@@H](C)CC)C(=O)N[C@@H](C)C(=O)N[C@@H](Cc1c[nH]c2ccccc12)C(=O)N[C@@H](CC(C)C)C(=O)N[C@H](C(=O)N[C@@H](CCC(=O)O)C(=O)N[C@@H](Cc1c[nH]cn1)C(=O)N[C@@H](CCCCN)C(=O)N[C@H](C(=O)N[C@H](C(=O)N[C@@H](CC(=O)O)C(=O)O)[C@@H](C)O)[C@@H](C)CC)[C@@H](C)CC [Compound 53] (HELM PEPTIDE1{H.[Aib].E.G.S.F.T.S.E.K.A.T.I.L.D.E.Q.A.A.R.D.F.I.A.W.L.I.E.H.K.I.T.D}|PEPTIDE2{[O=C(O)CCCCCCCCCCCCCCCCCCC(=O)[*:2]].[gGlu].K.E.K.[O=C(COCCOCCN[*:1])[*:2]]}$PEPTIDE1,PEPTIDE2,10:R3-6:R2$$$V2.0)	A (>90% normalised stability)
CC[C@H](C)[C@H](NC(=O)[C@H](Cc1ccccc1)NC(=O)[C@H](CC(=O)O)NC(=O)[C@H](CCCNC(=N)N)NC(=O)[C@H](C)NC(=O)[C@H](C)NC(=O)[C@H](CCC(N)=O)NC(=O)[C@H](CCC(=O)O)NC(=O)[C@H](CC(=O)O)NC(=O)[C@H](CC(C)C)NC(=O)[C@@H](NC(=O)[C@@H](NC(=O)[C@H](C)NC(=O)[C@H](CCCCNC(=O)COCCOCCNC(=O)COCCOCCNC(=O)[C@H](CCCCN)NC(=O)[C@H](CCC(=O)O)NC(=O)[C@H](CCCCN)NC(=O)CC[C@H](NC(=O)CCCCCCCCCCCCCCCCCCC(=O)O)C(=O)O)NC(=O)[C@H](CCC(=O)O)NC(=O)[C@H](CO)NC(=O)[C@@H](NC(=O)[C@H](Cc1ccccc1)NC(=O)[C@H](CO)NC(=O)CNC(=O)[C@H](CCC(=O)O)NC(=O)C(C)(C)NC(=O)[C@@H](N)Cc1c[nH]cn1)[C@@H](C)O)[C@@H](C)O)[C@@H](C)CC)C(=O)N[C@@H](C)C(=O)N[C@@H](Cc1c[nH]c2ccccc12)C(=O)N[C@@H](CC(C)C)C(=O)N[C@H](C(=O)N[C@@H](CCC(=O)O)C(=O)N[C@@H](Cc1c[nH]cn1)C(=O)N[C@@H](CCCCN)C(=O)N[C@H](C(=O)N[C@H](C(=O)N[C@@H](CC(=O)O)C(=O)O)[C@@H](C)O)[C@@H](C)CC)[C@@H](C)CC [Compound 55] (H-H[Aib]EGSFTSEK([AEEA-AEEA-Lys-Glu-Lys-γGlu-C20 diacid])ATILDEQAARDFIAWLIEHKITD-OH)	A (>90% normalised stability)
CC[C@H](C)[C@H](NC(=O)[C@H](CC(C)C)NC(=O)[C@H](Cc1c[nH]c2ccccc12)NC(=O)[C@H](C)NC(=O)[C@@H](NC(=O)[C@H](Cc1ccccc1)NC(=O)[C@H](CC(=O)O)NC(=O)[C@H](CCCNC(=N)N)NC(=O)[C@H](C)NC(=O)[C@H](C)NC(=O)[C@H](CCC(N)=O)NC(=O)[C@H](CCCCNC(=O)COCCOCCNC(=O)[C@H](CCCCN)NC(=O)[C@H](CCC(=O)O)NC(=O)[C@H](CCCCN)NC(=O)CC[C@H](NC(=O)CCCCCCCCCCCCCCCCCCC(=O)O)C(=O)O)NC(=O)[C@H](CC(=O)O)NC(=O)[C@H](CC(C)C)NC(=O)[C@@H](NC(=O)[C@@H](NC(=O)[C@H](C)NC(=O)[C@H](CC(C)C)NC(=O)[C@H](CCC(=O)O)NC(=O)[C@H](CO)NC(=O)[C@@H](NC(=O)[C@H](Cc1ccccc1)NC(=O)[C@H](CO)NC(=O)CNC(=O)[C@H](CCC(=O)O)NC(=O)C(C)(C)NC(=O)[C@@H](N)Cc1c[nH]cn1)[C@@H](C)O)[C@@H](C)O)[C@@H](C)CC)[C@@H](C)CC)C(=O)N[C@@H](C)C(=O)N[C@@H](Cc1c[nH]cn1)C(=O)N[C@@H](CCCCN)C(=O)N[C@H](C(=O)N[C@H](C(=O)N[C@@H](CC(=O)O)C(=O)O)[C@@H](C)O)[C@@H](C)CC [Compound 58] (HELM PEPTIDE1{H.[Aib].E.G.S.F.T.S.E.L.A.T.I.L.D.K.Q.A.A.R.D.F.I.A.W.L.I.A.H.K.I.T.D}|PEPTIDE2{[O=C(O)CCCCCCCCCCCCCCCCCCC(=O)[*:2]].[gGlu].K.E.K.[O=C(COCCOCCN[*:1])[*:2]]}$PEPTIDE1,PEPTIDE2,16:R3-6:R2$$$V2.0)	A (>90% normalised stability)
